{
  "source": "patent US9657351B2",
  "about": "“MRNA-based gene expression for personalizing patient cancer therapy with an MDM2 antagonist” (Hoffmann-La Roche Inc., priority 2013, dated 2017)",
  "experiment_in_all_cases": "COMPOUND A In Vitro Assay",
  "type_in_all_cases": "cell-based",
  "key": {"COLO-824": {"tested_on": "COLO-824", "details": "Homo sapiens, Breast, TP53 Wild type", "procedure,_shortened": "(§1)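 The human cancer cell lines, spanning many tumour origins, were characterised by exome and RNA sequencing at baseline and then screened against the MDM2 antagonist COMPOUND A. Response is expressed as IC50.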"}, "NCI-H2347": {"tested_on": "NCI-H2347", "details": "Homo sapiens, Lung, TP53 Wild type", "procedure,_shortened": "as §1"}, "A-375": {"tested_on": "A-375", "details": "Homo sapiens", "procedure,_shortened": "as §1"}, "SNU-5": {"tested_on": "SNU-5", "details": "Homo sapiens, Stomach, TP53 Mutant", "procedure,_shortened": "as §1"}, "KHM-1B": {"tested_on": "KHM-1B", "details": "Homo sapiens, Lymphocyte, TP53 Wild type", "procedure,_shortened": "as §1"}, "SKM-1": {"tested_on": "SKM-1", "details": "Homo sapiens, Lymphocyte, peripheral blood, TP53 Mutant", "procedure,_shortened": "as §1"}, "YAPC": {"tested_on": "YAPC", "details": "Homo sapiens, Pancreas, TP53 Mutant", "procedure,_shortened": "as §1"}, "HCC1500": {"tested_on": "HCC1500", "details": "Homo sapiens, Breast, mammary gland, TP53 Wild type", "procedure,_shortened": "as §1"}, "ARH-77": {"tested_on": "ARH-77", "details": "Homo sapiens, Lymphocyte B, peripheral blood, TP53 Mutant", "procedure,_shortened": "as §1"}, "DU-4475": {"tested_on": "DU-4475", "details": "Homo sapiens, Breast, mammary gland, TP53 Wild type", "procedure,_shortened": "as §1"}, "HCC1395": {"tested_on": "HCC1395", "details": "Homo sapiens, Breast, mammary gland, TP53 Mutant", "procedure,_shortened": "as §1"}, "SK-MEL-30": {"tested_on": "SK-MEL-30", "details": "Homo sapiens, Skin, TP53 Mutant", "procedure,_shortened": "as §1"}, "MKN-74": {"tested_on": "MKN-74", "details": "Homo sapiens", "procedure,_shortened": "as §1"}, "L-363": {"tested_on": "L-363", "details": "Homo sapiens, Lymphocyte, peripheral blood, TP53 Mutant", "procedure,_shortened": "as §1"}, "NCI-H292": {"tested_on": "NCI-H292", "details": "Homo sapiens, Lung, TP53 Wild type", "procedure,_shortened": "as §1"}, "SU•86•86": {"tested_on": "SU•86•86", "details": "Homo sapiens, SU.86.86, Pancreas, TP53 Mutant", "procedure,_shortened": "as §1"}, "HPAF-II": {"tested_on": "HPAF-II", "details": "Homo sapiens, Pancreas, TP53 Mutant", "procedure,_shortened": "as §1"}, "A-204": {"tested_on": "A-204", "details": "Homo sapiens, A204, Muscle, TP53 Mutant", "procedure,_shortened": "as §1"}, "SW626": {"tested_on": "SW626", "details": "Homo sapiens, Ovary, TP53 Mutant", "procedure,_shortened": "as §1"}, "T98G": {"tested_on": "T98G", "details": "Homo sapiens, Brain, TP53 Mutant", "procedure,_shortened": "as §1"}, "SK-LU-1": {"tested_on": "SK-LU-1", "details": "Homo sapiens, Lung, TP53 Mutant", "procedure,_shortened": "as §1"}, "RT4": {"tested_on": "RT4", "details": "Homo sapiens, RT-4, Urinary, bladder, TP53 Wild type", "procedure,_shortened": "as §1"}, "JIMT-1": {"tested_on": "JIMT-1", "details": "Homo sapiens, Breast, TP53 Mutant", "procedure,_shortened": "as §1"}, "Daoy": {"tested_on": "Daoy", "details": "Homo sapiens, Brain, cerebellum, TP53 Mutant", "procedure,_shortened": "as §1"}, "NCI-H520": {"tested_on": "NCI-H520", "details": "Homo sapiens, Lung, TP53 Mutant", "procedure,_shortened": "as §1"}, "NCI-H661": {"tested_on": "NCI-H661", "details": "Homo sapiens, Lung, TP53 Mutant", "procedure,_shortened": "as §1"}, "NCI-H1838": {"tested_on": "NCI-H1838", "details": "Homo sapiens, Lung, TP53 Mutant", "procedure,_shortened": "as §1"}, "IMR-32": {"tested_on": "IMR-32", "details": "Homo sapiens", "procedure,_shortened": "as §1"}, "NCI-H1781": {"tested_on": "NCI-H1781", "details": "Homo sapiens, Lung, TP53 Mutant", "procedure,_shortened": "as §1"}, "HuH-28": {"tested_on": "HuH-28", "details": "Homo sapiens, Gall bladder, TP53 Mutant", "procedure,_shortened": "as §1"}, "NCI-H358": {"tested_on": "NCI-H358", "details": "Homo sapiens, Lung, bronchi, TP53 Mutant", "procedure,_shortened": "as §1"}, "NCI-H526": {"tested_on": "NCI-H526", "details": "Homo sapiens, Lung, TP53 Mutant", "procedure,_shortened": "as §1"}, "F-36P": {"tested_on": "F-36P", "details": "Homo sapiens, Myeloblast, TP53 Mutant", "procedure,_shortened": "as §1"}, "NCI-H345": {"tested_on": "NCI-H345", "details": "Homo sapiens, Lung, TP53 Mutant", "procedure,_shortened": "as §1"}, "SK-ES-1": {"tested_on": "SK-ES-1", "details": "Homo sapiens, SK-ES1, Bone, TP53 Mutant", "procedure,_shortened": "as §1"}, "NCI-H2081": {"tested_on": "NCI-H2081", "details": "Homo sapiens, Lung, TP53 Wild type", "procedure,_shortened": "as §1"}, "Calu-3": {"tested_on": "Calu-3", "details": "Homo sapiens, Lung, TP53 Mutant", "procedure,_shortened": "as §1"}, "NCI-H446": {"tested_on": "NCI-H446", "details": "Homo sapiens, Lung, TP53 Mutant", "procedure,_shortened": "as §1"}},
  "data": [
    {"smiles": "CCOc1cc(C(C)(C)C)ccc1C1=N[C@@](C)(c2ccc(Cl)cc2)[C@@](C)(c2ccc(Cl)cc2)N1C(=O)N1CCN(CCCS(C)(=O)=O)CC1", "note": "[COMPOUND A]", "values": [
      {"measurement": "IC50", "setting": "COLO-824", "result": 15, "unit": "µM"},
      {"measurement": "IC50", "setting": "NCI-H2347", "result": 9, "unit": "µM"},
      {"measurement": "IC50", "setting": "A-375; A-375, A-375, Skin, TP53 Wild type", "result": 0.32, "unit": "µM"},
      {"measurement": "IC50", "setting": "A-375; A-375, A-375 cells", "result": 0.3, "unit": "µM"},
      {"measurement": "IC50", "setting": "SNU-5", "result": 16, "unit": "µM"},
      {"measurement": "IC50", "setting": "KHM-1B", "result": 6.9, "unit": "µM"},
      {"measurement": "IC50", "setting": "SKM-1", "result": 19, "unit": "µM"},
      {"measurement": "IC50", "setting": "YAPC", "result": 18, "unit": "µM"},
      {"measurement": "IC50", "setting": "HCC1500", "result": 1, "unit": "µM"},
      {"measurement": "IC50", "setting": "ARH-77", "result": 17, "unit": "µM"},
      {"measurement": "IC50", "setting": "DU-4475", "result": 2.1, "unit": "µM"},
      {"measurement": "IC50", "setting": "HCC1395", "result": 20, "unit": "µM"},
      {"measurement": "IC50", "setting": "SK-MEL-30", "result": 19, "unit": "µM"},
      {"measurement": "IC50", "setting": "MKN-74; MKN-74, MKN-74, Muscle, smooth, stomach, TP53 Wild type", "result": 0.88, "unit": "µM"},
      {"measurement": "IC50", "setting": "MKN-74; MKN-74, MKN-74 cells", "result": 0.9, "unit": "µM"},
      {"measurement": "IC50", "setting": "L-363", "result": 32, "unit": "µM"},
      {"measurement": "IC50", "setting": "NCI-H292", "result": 1.6, "unit": "µM"},
      {"measurement": "IC50", "setting": "SU•86•86", "result": 6.7, "unit": "µM"},
      {"measurement": "IC50", "setting": "HPAF-II", "result": 10, "unit": "µM"},
      {"measurement": "IC50", "setting": "A-204", "result": 8.4, "unit": "µM"},
      {"measurement": "IC50", "setting": "SW626", "result": 9.5, "unit": "µM"},
      {"measurement": "IC50", "setting": "T98G", "result": 8.3, "unit": "µM"},
      {"measurement": "IC50", "setting": "SK-LU-1", "result": 11, "unit": "µM"},
      {"measurement": "IC50", "setting": "RT4", "result": 2.4, "unit": "µM"},
      {"measurement": "IC50", "setting": "JIMT-1", "result": 11, "unit": "µM"},
      {"measurement": "IC50", "setting": "Daoy", "result": 9.7, "unit": "µM"},
      {"measurement": "IC50", "setting": "NCI-H520", "result": 17, "unit": "µM"},
      {"measurement": "IC50", "setting": "NCI-H661", "result": 11, "unit": "µM"},
      {"measurement": "IC50", "setting": "NCI-H1838", "result": 9.8, "unit": "µM"},
      {"measurement": "IC50", "setting": "IMR-32; IMR-32, IMR-32, Brain, TP53 Wild type", "result": 0.43, "unit": "µM"},
      {"measurement": "IC50", "setting": "IMR-32; IMR-32, IMR-32 cells", "result": 0.4, "unit": "µM"},
      {"measurement": "IC50", "setting": "NCI-H1781", "result": 8.8, "unit": "µM"},
      {"measurement": "IC50", "setting": "HuH-28", "result": 15, "unit": "µM"},
      {"measurement": "IC50", "setting": "NCI-H358", "result": 8.1, "unit": "µM"},
      {"measurement": "IC50", "setting": "NCI-H526", "result": 16, "unit": "µM"},
      {"measurement": "IC50", "setting": "F-36P", "result": 23, "unit": "µM"},
      {"measurement": "IC50", "setting": "NCI-H345", "result": 17, "unit": "µM"},
      {"measurement": "IC50", "setting": "SK-ES-1", "result": 25, "unit": "µM"},
      {"measurement": "IC50", "setting": "NCI-H2081", "result": 17, "unit": "µM"},
      {"measurement": "IC50", "setting": "Calu-3", "result": 11, "unit": "µM"},
      {"measurement": "IC50", "setting": "NCI-H446", "result": 18, "unit": "µM"}
    ]}
  ]
}
